Results from patent US20220143210A1, “HYDROGEL COMPOSITIONS AND METHODS FOR TREATEMENT OF MALIGNANCIES” (Fred Hutchinson Cancer Research Center, priority 2019, published 2022).
Entries after “also recorded” stand apart in the source; their conditions may differ.

B1: IFNg: M1-polarizing agent (protein, UniProt P01579 24-161, looked up)
Interferon gamma: QDPYVKEAENLKKYFNAGHSDVADNGTLFLGILKNWKEESDRKIMQSQIVSFYFKLFKNFKDDQSIQKSVETIKEDMNVKFFNSNKKKRDDFEKLTNYSVTDLNVQRKAIHELIQVMAELSPAAKTGKRKRSQMLFRG

Legend:
[1] = test system: GFP+ HGG cells in a 1:1 co-culture with murine macrophages; assay type: cell-based, human PDX tumor cells, murine macrophages (C57/B6 mouse); conditions: single agent; macrophage species not specified
Protocol: All chemokines were purchased from Sigma-Aldrich. LEAF hCD47 mAb was purchased from eBioscience (cat number, B6H12 clone). Primary murine macrophages were derived from bone marrow of a C57/B6 mouse. Bone marrow derived mononuclear progenitors were cultured in RPMI with CSF-1 for 3 days before freezing/use in assays. Patient-derived xenograft (PDX) were obtained from autopsy or biopsy. PDX lines were cultured in Neuralcult Serum Free (Stem cell tech) with Neuralcult supplement (cat no), 100 U ml-1 PenStrep, Glutamax, EGF and FGF. Cells were grown adherent on tissue-culture treated plates after at least 2 hours of Laminin coating (Sigma-aldrich) in an incubator at 37° C. in 5% CO2. All PDX lines were transduced with H2b-GFP and Luciferase to assist in cell counting and tumor size visualization via IVIS. Xenograft tumors were established in the cortex of female athymic mice nu/nu (Harlan) mice. Tumors were allowed to grow to an IVIS threshold before study enrollment. All mouse studies were carried out following protocols approved by the IACUC at FHCRC (protocol 1457) and complied with all relevant ethical regulations.
Phagocytosis assays were performed using the Basic Analyzer software on Essen Bio's Incucyte Zoom 2016 and S3. […] Using the aforementioned definitions, the Incucyte calculated the reduction of GFP+ nuclei in the wells over time in response to those factors. […]

[2] = test system: GFP+ PDX brain tumor cells (HGG); assay: In vitro chemotaxis (transwell, Incucyte) assay; assay type: cell-based, human; conditions: for chemotaxis / migration of PDX brain tumor cells: chemokine gradient, transwell
Protocol: Cell migration assays were performed using the Chemotaxis software on Essen Bio's Incucyte Zoom 2016 and S3. Specialized 96 well transwell plates were supplied by Essen Bio. GFP+ PDX cells were cultured in the aforementioned Neuralcult media without EGF/FGF supplementation. The Incucyte software definitions were trained to identify GFP+ rounded objects spanning the range of healthy nuclei found in my cultures.
It has been hypothesized that it is possible to exploit the migratory behavior of high grade brain tumors by employing chemokine gradients to attract them out of inoperable locations and into a location within the brain that maximizes their exposure to opsonin and macrophages. […] Flow analysis confirms the expression of the requisite chemokine receptors on the HGG line used in our chemotaxis assay, as shown in FIGS. 2A-2C.

[3] = administered intravenously, clinically; cited from earlier work

Row | Molecule | effects on the tumor cells in co-culture [1] | chemotaxis / migration of PDX brain tumor cells [2] | further results
1 | CCOCc1nc2c(N)nc3ccccc3c2n1CC(C)(C)O [R848, reference compound] | mild effects |  | 
2 | CXCL12: classical immune cell chemokine, purchased from Sigma-Aldrich |  | induced varying degrees of chemotaxis; also recorded: effective at eliciting migration | 
3 | CXCL8: classical immune cell chemokine, purchased from Sigma-Aldrich |  | induced varying degrees of chemotaxis; also recorded: effective at eliciting migration | 
4 | IFNg: M1-polarizing agent | mild effects |  | 
5 | CCL2: classical immune cell chemokine, purchased from Sigma-Aldrich |  | induced varying degrees of chemotaxis; also recorded: effective at eliciting chemotaxis; also recorded: effective at eliciting migration | relative chemotactic potency across PDX lines ([2]; across all lines tested): most potency across all lines tested
6 | B1 |  |  | systemic toxicity [3]: dramatic systemic toxicity
